Values of other authors as cited in patent US10945989B2, “Perinatal treatment with a flavonoid agonist of the TrkB receptor for BDNF rescues neurogenesis and behavior in the Ts65Dn mouse model of DS” (ALMA MATER STUDIORUM—Universita' di Bologna, priority 2017, dated 2021).

Tested on: Ts65Dn mouse model of DS
Settings: perinatal treatment, Bianchi et al., 2010b; Guidi et al., 2014; cited from earlier work

CNCCC(Oc1ccc(C(F)(F)F)cc1)c1ccccc1 (stereo not shown) [fluoxetine]
brain development and cognitive performance: fully restores brain development and cognitive performance
